Reference: ChEMBL document CHEMBL4433261, “Synthesis of peptidomimetics and chemo-biological tools for CD95/PLCγ1 interaction analysis” (Bioorg Med Chem Lett, 2019)
pEC50, pIC50: −log10 of the molar value. Activity calls are given as the source filed them. The calls are words filed in the database; no cut-off is given here.

What was measured:
[1] = Inhibition of human full length HA-tagged CD95/human full length Myc-tagged PLCgamma1 protein-protein interaction transfected in HEK293T cells incubated for 4 hrs by renilla luciferase based protein-fragment complementation assay; type: cell-based
[2] = Inhibition of human full length HA-tagged CD95/FADD (unknown origin) protein-protein interaction transfected in HEK293T cells incubated for 4 hrs by renilla luciferase based protein-fragment complementation assay; type: cell-based; settings: for pIC50: read-out: IC50
Homo sapiens = organism: Homo sapiens; assay: Selectivity ratio of IC50 for human full length HA-tagged CD95/FADD (unknown origin) protein-protein interaction to IC50 for human full length HA-tagged CD95/human full length Myc-tagged PLCgamma1 protein-protein interaction
[3] = Half life in human whole blood; type: ADME, tissue-based
[4] = target: T1, Tumor necrosis factor receptor superfamily member 6 (Homo sapiens) (UniProt P25445); assay: Inhibition of s-CD95L(unknown origin)-stimulated cell migration of human MDA-MB-231 cells at 10 uM incubated for 24 hrs by Boyden chambers assay; type: cell-based
T1 sequence (whole entry): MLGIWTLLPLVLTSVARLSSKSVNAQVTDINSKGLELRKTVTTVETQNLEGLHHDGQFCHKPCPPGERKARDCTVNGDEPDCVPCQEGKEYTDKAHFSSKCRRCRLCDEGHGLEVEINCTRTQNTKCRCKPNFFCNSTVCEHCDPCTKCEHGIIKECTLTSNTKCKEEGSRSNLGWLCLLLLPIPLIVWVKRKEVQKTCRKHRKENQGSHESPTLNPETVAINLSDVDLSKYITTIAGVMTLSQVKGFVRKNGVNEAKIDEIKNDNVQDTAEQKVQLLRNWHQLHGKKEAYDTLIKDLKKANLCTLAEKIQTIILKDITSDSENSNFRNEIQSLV

[5] = target: T1, Tumor necrosis factor receptor superfamily member 6 (Homo sapiens); assay: Inhibition of s-CD95L(unknown origin)-stimulated cell migration of human MDA-MB-231 cells at 10 uM incubated for 24 hrs by Giemsa-staining based assay
[6] = target: T1, Tumor necrosis factor receptor superfamily member 6 (Homo sapiens); assay: Inhibition of s-CD95L(unknown origin)-stimulated cell migration of human Th17 cells at 10 uM incubated for 24 hrs by Boyden chambers assay
CCRF-CEM = assay: Cytotoxicity in human CEM cells assessed as reduction in cell viability incubated for 24 hrs by MTT assay; type: cell-based
[7] = target: T2, 1-phosphatidylinositol 4,5-bisphosphate phosphodiesterase gamma-1 (Homo sapiens, UniProt P19174); assay: (§1) Binding affinity to human full length Myc-tagged PLCgamma1 transfected in HEK293T cells by pull down assay; type: cell-based
T2 sequence (P19174 whole entry): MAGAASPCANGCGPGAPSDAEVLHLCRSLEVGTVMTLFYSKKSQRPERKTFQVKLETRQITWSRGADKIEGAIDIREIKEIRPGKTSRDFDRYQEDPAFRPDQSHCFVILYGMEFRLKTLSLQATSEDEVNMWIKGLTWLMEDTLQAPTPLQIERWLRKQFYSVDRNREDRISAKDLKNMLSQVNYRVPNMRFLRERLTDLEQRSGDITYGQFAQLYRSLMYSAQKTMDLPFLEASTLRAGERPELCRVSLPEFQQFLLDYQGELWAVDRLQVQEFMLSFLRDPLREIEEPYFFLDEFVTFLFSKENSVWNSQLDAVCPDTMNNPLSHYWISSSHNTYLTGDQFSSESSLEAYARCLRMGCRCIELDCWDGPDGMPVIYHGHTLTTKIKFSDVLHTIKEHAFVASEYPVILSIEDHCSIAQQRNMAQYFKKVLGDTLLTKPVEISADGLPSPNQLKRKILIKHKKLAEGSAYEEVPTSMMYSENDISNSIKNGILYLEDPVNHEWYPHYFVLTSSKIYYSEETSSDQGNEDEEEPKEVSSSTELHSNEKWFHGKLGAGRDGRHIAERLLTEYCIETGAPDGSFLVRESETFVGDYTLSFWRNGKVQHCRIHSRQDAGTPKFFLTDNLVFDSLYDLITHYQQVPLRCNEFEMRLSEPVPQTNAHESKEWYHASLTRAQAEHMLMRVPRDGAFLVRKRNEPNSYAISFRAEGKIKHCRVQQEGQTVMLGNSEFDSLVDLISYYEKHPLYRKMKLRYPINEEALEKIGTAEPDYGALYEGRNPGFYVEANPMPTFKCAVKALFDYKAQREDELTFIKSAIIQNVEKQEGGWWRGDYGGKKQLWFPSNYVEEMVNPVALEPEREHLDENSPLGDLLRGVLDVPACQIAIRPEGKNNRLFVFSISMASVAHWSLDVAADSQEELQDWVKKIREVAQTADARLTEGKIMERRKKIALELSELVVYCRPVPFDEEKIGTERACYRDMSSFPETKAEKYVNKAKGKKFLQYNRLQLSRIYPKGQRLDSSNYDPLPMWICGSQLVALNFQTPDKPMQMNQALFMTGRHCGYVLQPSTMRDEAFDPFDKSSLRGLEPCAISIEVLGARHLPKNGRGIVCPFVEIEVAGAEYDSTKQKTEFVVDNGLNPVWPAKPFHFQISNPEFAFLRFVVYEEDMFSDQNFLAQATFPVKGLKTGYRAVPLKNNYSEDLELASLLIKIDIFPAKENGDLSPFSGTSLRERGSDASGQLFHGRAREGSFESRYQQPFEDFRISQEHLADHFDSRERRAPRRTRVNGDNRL

[8] = target: T1, Tumor necrosis factor receptor superfamily member 6 (Homo sapiens); assay: Inhibition of s-CD95L(unknown origin)-stimulated cell migration of human MDA-MB-231 cells at 1 uM incubated for 24 hrs by Boyden chambers assay; type: cell-based
[9] = target: T1, Tumor necrosis factor receptor superfamily member 6 (Homo sapiens); assay: Inhibition of s-CD95L(unknown origin)-stimulated cell migration of human MDA-MB-231 cells at 1 uM incubated for 24 hrs by Giemsa-staining based assay
[10] = target: T1, Tumor necrosis factor receptor superfamily member 6 (Homo sapiens); assay: Inhibition of s-CD95L(unknown origin)-stimulated cell migration of human Th17 cells at 1 uM incubated for 24 hrs by Boyden chambers assay
[11] = target: T3, 1-phosphatidylinositol 4,5-bisphosphate phosphodiesterase gamma-1 (Homo sapiens) (UniProt P19174); assay: as §1; type: cell-based
T3 sequence (whole entry): T2 sequence (P19174 whole entry)

Molecule | pIC50 [1] | Ratio IC50 (Homo sapiens) | pIC50 [2] | further results
N=C(N)NCCCCC(=O)N(CCNC(=O)[C@@H](N)CS)[C@@H](CCCCN)C(=O)NCCN(C(=O)CCc1c[nH]cn1)[C@@H](CCCNC(=N)N)C(=O)NCCNC(=O)CCCCCN | 3.40 | 1.1 | 3.35 | 
C[C@@H](O)[C@H](NC(=O)CCCC[C@@H]1SC[C@@H]2NC(=O)N[C@@H]21)C(=O)NCCN(C(=O)CCS)[C@@H](CCCNC(=N)N)C(=O)NCCN(C(=O)CCCCCN)[C@@H](Cc1c[nH]cn1)C(=O)NCCN(C(=O)CCCCNC(=N)N)[C@@H](CCCCN)C(N)=O |  |  |  | pEC50 [7]: 4.30 to 4.60
N=C(N)NCCCCC(=O)N(CCNC(=O)[C@H](Cc1c[nH]cn1)N(CCNC(=O)[C@H](CCCNC(=N)N)N(CCN)C(=O)CCCC[C@@H]1SC[C@@H]2NC(=O)N[C@@H]21)C(=O)CCCCCN)[C@@H](CCCCN)C(N)=O |  |  |  | Activity [11]: Active
C[C@@H](O)CC(=O)N[C@@H](CS)C(=O)NCCN(C(=O)CCCCNC(=N)N)[C@@H](CCCCN)C(=O)NCCN(C(=O)CCc1c[nH]cn1)[C@@H](CCCNC(=N)N)C(=O)NCCNC(=O)CCCCCN | 3.51 | 2 | 3.20 | 

Continued by rising pIC50 [1], values first:

pIC50 [1] | Ratio IC50 (Homo sapiens) | pIC50 [2] | Molecule | further results
3.64 | 1.4 | 3.50 | C[C@@H](O)CC(=O)N(CCN)[C@@H](CS)C(=O)NCCN(C(=O)CCCCNC(=N)N)[C@@H](CCCCN)C(=O)NCCN(C(=O)CCc1c[nH]cn1)[C@@H](CCCNC(=N)N)C(=O)NCCNC(=O)CCCCCN | 
4.11 | > 100 |  | C[C@@H](O)[C@H](N)C(=O)NCCN(C(=O)CCS)[C@@H](CCCNC(=N)N)C(=O)NCCN(C(=O)CCCCCN)[C@@H](Cc1c[nH]cn1)C(=O)NCCN(C(=O)CCCCNC(=N)N)[C@@H](CCCCN)C(N)=O | IC50 [2]: Not Active; half-life [3]: 11 to 11.1 h; inhibition [4]: Active; inhibition [5]: Active; inhibition [6]: Active
4.12 | 50 | 2.42 | N=C(N)NCCCCC(=O)N(CCNC(=O)[C@H](Cc1c[nH]cn1)N(CCNC(=O)[C@H](CCCNC(=N)N)N(CCN)C(=O)CCS)C(=O)CCCCCN)[C@@H](CCCCN)C(N)=O | inhibition [4]: Active; inhibition [5]: Active; inhibition [6]: Active
4.46 | 1.1 | 4.41 | CCCCCCCCCCCCCCCCCC(=O)N(CCN)[C@@H](CCCNC(=N)N)C(=O)NCCN(C(=O)CCCCCN)[C@@H](Cc1c[nH]cn1)C(=O)NCCN(C(=O)CCCCNC(=N)N)[C@@H](CCCCN)C(N)=O.O=C(O)C(F)(F)F.O=C(O)C(F)(F)F.O=C(O)C(F)(F)F.O=C(O)C(F)(F)F.O=C(O)C(F)(F)F | Activity (CCRF-CEM): Toxic
4.46 | > 100 |  | H-TCRKHRK-OH | IC50 [2]: Not Active; half-life [3]: 3 to 3.4 h; inhibition [8]: Active; inhibition [9]: Active; inhibition [10]: Active
